Results published in US8288158B2, “Stem cells modified to facilitate threonine catabolism” (Board of Regents, The University of Texas System, priority 2009, dated 2012).

How the values were obtained:
morula-staged embryos = assay: Early mouse embryo development (morula to blastocyst) in culture with 3-HNV; format: cell-based
Procedure: The availability of 3-HNV as a cell-permeable threonine analog facilitated experiments using living mouse embryos. Before testing the effects of 3-HNV on early mouse embryo development, in situ hybridization and immunohistochemical staining assays were performed to investigate the expression pattern of both TDH mRNA and TDH enzyme (16). […] Knowing that the ICM represents the in vivo source of ES cells (17), we hypothesized that the early development of mouse embryos might be inhibited by 3-HNV. […] These studies indicate that ICM cells of the early mouse embryo, like cultured mouse ES cells, are critically dependent upon threonine catabolism.
• 1. B. Alberts et al., Molecular Biology of the Cell (Garland Publishing, Inc., New York, ed. March, 2007), pp. 1-1392. • 2. A. G. Smith, Annu. Rev. Cell Dev. Biol. 17, 435 (2001). • 3. B. P. Tu et al., Proc. Natl. Acad. Sci. U.S.A. 104, 16886 (2007). • 4. L. Warren, J. M. Buchanan, J. Biol. Chem. 229, 613 (1957). • H. Weissbach, A. Peterkofsky, B. G. Redfield, H. Dickerman, J. Biol. Chem. 238, 3318 (1963). • 6. E. A. Phear, D. M. Greenberg, J. Am. Chem. Soc. 79, 3737 (1957). • 7. Total RNA was extracted with RNA STAT-60 (Tel-Test) and converted into cDNA with oligo(dT) primer using the SuperScript first-strand synthesis kit (Invitrogen). PCR was performed on an AB 7900HT fast real-time PCR system (Applied Bioscience) using a TDH specific primer pair. • 8. R. A. Dale, Biochim. Biophys. Acta. 544, 496 (1978). • 9. TDH cDNA with an in-frame Flag tag sequence fused to the carboxyl terminus of the enzyme was cloned into mammalian expression vector pcDNA3.1 at EcoR1/Xho1 sites. The resultant vector was transfected into 293T cells using Lipofectamine 2000 reagent (Invitrogen). Stable transformants were selected in media containing 500 μg/ml G418 and characterized by western blotting analysis using anti-Flag antibody (Sigma). To extract mitochondrial protein, cells were homogenized in the buffer containing 10 mM Tris-HCl (pH 7.5), 250 mM sucrose and 2 mM EDTA on ice with a glass pestle douncer. Mitochondria were isolated from homogenates through a two-step differential centrifugation procedure at 600 and 11,000 g for 10 m each at 4° C. Mitochondrial protein was then extracted in 100 mM potassium phosphate buffer (pH 7.4) containing 0.1% NP-40, 10 mM DTT and 1× protease inhibitor cocktail (Sigma). TDH activity was determined by measuring the rate of formation of NADH at 25° C. The assay mixture contained 100 mM Tris-HCl (pH 8.0), 25 mM L-threonine, 5 mM NAD and 25 mM NaCl in a final volume of […] The reaction was initiated by the addition of mitochondrial protein extract, and absorbance of the reaction mixture at 340 nM was recorded continuously on a microplate reader. • 10. […]

mouse ES cells = assay: ES cell colony formation in normal or threonine-deficient medium with 3-HNV; format: cell-based; conditions: varying levels of 3-HNV
Procedure: Instead of the normal, 400 uM level of glycine, threonine-deficient medium was supplemented with 4 mM glycine. ES cells subjected to this threonine-deficient, glycine-enriched medium grew no better than those subjected to the threonine drop out medium itself. It is possible that ES cells are unable to deliver the supplemented glycine to mitochondria in order to feed the glycine cleavage system and folate charging. Alternatively, it is also possible that TDH-mediated production of acetyl-CoA is equally important to the HFB-like metabolic state. This alternative interpretation is consistent with the observation that among all metabolites that decline in abundance most precipitously as a function of the conversion of ES cells into differentiating embryoid bodies, acetyl-CoA was second only to the purine intermediate AICAR. In order to investigate these alternatives, we employed 3-hydroxynorvaline (3-HNV), a synthetic variant of threonine containing an extra carbon atom. […]
• 1. […] TDH activity was determined by measuring the rate of formation of NADH at 25° C. The assay mixture contained 100 mM Tris-HCl (pH 8.0), 25 mM L-threonine, 5 mM NAD and 25 mM NaCl in a final volume of […] The reaction was initiated by the addition of mitochondrial protein extract, and absorbance of the reaction mixture at 340 nM was recorded continuously on a microplate reader. • 10. […]

MEF cells = assay: MEF cell growth with 3-HNV; format: cell-based, mouse
Procedure: (§1) Instead of the normal, 400 uM level of glycine, threonine-deficient medium was supplemented with 4 mM glycine. ES cells subjected to this threonine-deficient, glycine-enriched medium grew no better than those subjected to the threonine drop out medium itself. It is possible that ES cells are unable to deliver the supplemented glycine to mitochondria in order to feed the glycine cleavage system and folate charging. Alternatively, it is also possible that TDH-mediated production of acetyl-CoA is equally important to the HFB-like metabolic state. This alternative interpretation is consistent with the observation that among all metabolites that decline in abundance most precipitously as a function of the conversion of ES cells into differentiating embryoid bodies, acetyl-CoA was second only to the purine intermediate AICAR. In order to investigate these alternatives, we employed 3-hydroxynorvaline (3-HNV), a synthetic variant of threonine containing an extra carbon atom. It is known that the TDH enzyme can […] this threonine analog, yet instead of producing glycine and acetyl-CoA, catabolism of 3-HNV yields glycine and propionyl-CoA (15). ES cells were cultured in either normal or threonine-deficient medium supplemented with varying levels of 3-HNV. […] The inhibitory effect of 3-HNV was not observed on the growth of HeLa, MEF or 3T3 cells.

3T3 cells = assay: 3T3 cell growth with 3-HNV; format: cell-based
Procedure: as §1

HeLa cells = assay: HeLa cell growth with 3-HNV; format: cell-based
Procedure: as §1

CCC(O)[C@H](N)C(=O)O (stereo partly drawn) [3-HNV, 3-hydroxynorvaline]
conversion of morula-staged embryos into cavitated blastocysts (morula-staged embryos; 100 uM 3-HNV): A more modest degree of inhibition | conversion of morula-staged embryos into cavitated blastocysts (morula-staged embryos; 300 uM 3-HNV): blocked the conversion of morula-staged embryos into cavitated blastocysts | conversion of morula-staged embryos into cavitated blastocysts (morula-staged embryos; 1 mM 3-HNV): blocked the conversion of morula-staged embryos into cavitated blastocysts | embryo development with threonine supplementation (morula-staged embryos; 1 mM 3-HNV, medium supplemented by 4 mM threonine): Complete rescue of normal development | ES cell colony formation (mouse ES cells; normal culture medium): inhibited ES cell colony formation | complementation of the absence of threonine (ES cell colony formation) (mouse ES cells; threonine-deficient medium): fail to complement the absence of threonine | inhibitory effect on cell growth (MEF cells): not observed | inhibitory effect on cell growth (3T3 cells): not observed | inhibitory effect on cell growth (HeLa cells): not observed
